Test results from paper PMC12040169 (PLOS Biology, 2025).

Test: in vitro
Details: human, hela cells, % viability

SMILES | viability at 28.5 h, 10 µM | viability at 28.5 h, 10 µM (bulk resorufin, single well)
Clc1ccc(OCc2ccccc2)c(CNCCN2CCOCC2)c1 [CBK278162C] | 93.4% | –
COc1ccccc1N1CCN(c2nccc3sc(S(=O)(=O)NCc4ccc(C(F)(F)F)c(F)c4)cc23)CC1 [CBK038270C] | 93.8% | –
CC(=O)Nc1cccc(NC(=O)c2ccc(CN3CCCCC3)cc2)c1 [CBK295596] | 103% | –
Cc1cn(C2CC(O)C(CN=[N+]=[N-])O2)c(=O)[nH]c1=O (stereo not drawn) [CBK201256] | 102% | –
Cc1nnc2sc(-c3ccc(NC(=O)CSc4ccc(Cl)cc4)cc3)nn12 [CBK266800] | 108% | –
C(=C\c1nccnc1OCc1ccccn1)/c1ccccc1 [CBK106874] | 105% | –
Cn1cncc1CN(Cc1ccccc1)C1CC(C)(C)NC(C)(C)C1 [CBK283226] | 89.1% | –
O=[N+]([O-])c1c(N2CCN(CCO)CC2)ccc2nonc12 [CBK264397] | 96% | –
O=C(CSc1nc2cccnc2[nH]1)Nc1cccc(F)c1 [CBK270113] | 89.3% | –
Cc1ccc(-c2oncc2C(=O)NCc2ccc(S(N)(=O)=O)cc2)cc1 [CBK154912] | 102% | –
Cc1ccc(-c2cc(C3CCN(C(=O)c4cnn(C)c4)C3)[nH]n2)cc1 (stereo not drawn) [CBK285266] | 85.4% | –
CCc1nn(CC(=O)NC2CCCC2)c(=O)c2cc3sccc3n12 [CBK284077] | 84% | –
O=C(O)c1cc(Cl)c2c(c1)[C@@H]1C=CC[C@@H]1[C@H](c1cccc(Br)c1)N2 [CBK077927] | 106% | –
COc1ccc([C@@]23CC[C@@H](NC(=O)Nc4cc(F)c(F)c(F)c4)C[C@@H]2N(C)CC3)c(F)c1OC [CBK073909T] | 90.6% | –
O=C(NCCN1CCCC1)c1ccc(N2CCN(C(=O)c3ccccc3C(F)(F)F)CC2)nn1 [CBK153217] | 105% | –
CC(C)(C)NS(=O)(=O)c1ccc(OCC(=O)NCc2ccncc2)cc1 [CBK266434] | 97.3% | –
Cc1n[nH]c(C)c1CCC(=O)N/N=C/c1ccccn1 [CBK262887] | 92.9% | –
Cc1ccc(N2C(=O)N[C@@H]3CCN(S(=O)(=O)c4ccccc4)[C@@H]3C2=O)cc1 [CBK289285] | 107% | –
CC1CN(C(=O)NC(=O)c2ccc(-c3csnn3)cc2)CC(C)O1 (stereo not drawn) [CBK017091] | 87.7% | –
CSc1sc(C(=O)NC(=O)N2CCOCC2)c2c1-c1nocc1CC2 [CBK018284] | 74.3% | –
CC1CCc2c(sc(NC(=O)c3cnccn3)c2C(N)=O)C1 (stereo not drawn) [CBK265466] | 90.7% | –
CN(C)C(=O)c1ccc(-c2cnc(OCC3CCN(C(=O)OC(C)(C)C)CC3)cn2)cc1F [CBK175076] | 118% | –

SMILES | viability at 28.5 h, 10 µM | viability at 28.5 h, 10 µM (bulk resorufin, single well)
COc1cc(CN2CCC(C(=O)NC(c3ccc(Cl)cc3)c3ccsc3)CC2)cc(OC)c1 (stereo not drawn) [CBK147962] | 95.3% | –
O=C(/C(=C\c1ccc([N+](=O)[O-])cc1)n1cncn1)c1ccc(Cl)cc1Cl [CBK262145] | 90.3% | –
CN(C)c1nc(Cl)c(C=Cc2cc(C(=O)O)c3ccccc3n2)s1 [CBK298272] | 110% | –
NS(=O)(=O)c1ccc(NC(=S)NC(=O)c2cccc3c(Cl)cccc23)cc1 [CBK268814] | 99.5% | –
Cc1ccc(O)c(NC(=O)c2ccccc2-c2ccccc2C(=O)O)c1 [CBK266763] | 82.9% | –
O=C(c1cc(S(=O)(=O)N2CCOCC2)ccc1Cl)N1CCCCC1 [CBK304377] | 94.1% | –
C=CCn1c2cc(C)sc2c2cnn(CC(=O)NC3CC3)c(=O)c21 [CBK284149] | 86.1% | –
COc1ccc(C(=O)N2CCC3(CCN(C(=O)CCSC)C3)C2)cc1OC (stereo not drawn) [CBK131786] | 105% | –
Cc1nnc2sc(-c3ccc(CNC(=S)NC(=O)c4ccccc4[N+](=O)[O-])cc3)nn12 [CBK268588] | 84.6% | –
COc1ccc(C(NC(=O)c2ccc(Cn3cncn3)cc2)c2ccccc2)cc1 (stereo not drawn) [CBK285749] | 106% | –
CCCC/C=C/c1nccnc1N(C)Cc1ccccc1 [CBK037412] | 99.8% | –
CS(=O)(=O)N(Cc1ccccc1)c1ccc(C(=O)Nc2ccccc2Cl)cc1 [CBK262745] | 86.9% | –
O=C(O)c1ccc(NC(=O)c2cccc(-n3cnnc3)c2)cc1 [CBK270134] | 104% | –
Cc1ccc(S(=O)(=O)NCCSc2nnc(N)s2)cc1 [CBK266300] | 97.9% | –
O=C1C[C@@H]2CCN(C(=O)NC3CCCCC3)C[C@@H]2CCN1CCN1CCNC1=O [CBK288796] | 96.4% | –
COc1cccc(Cn2c(C3CCNCC3)cc3cccnc32)c1 [CBK285076] | 91.5% | –
O=C(CCN1C(=O)C2C3CCC(C3)C2C1=O)OCC(=O)c1ccc(Cl)c([N+](=O)[O-])c1 (stereo not drawn) [CBK264124] | 95.2% | –
COc1nccnc1-c1ccc(Cl)c(Cl)c1 [CBK107110] | 98.7% | –
Cc1nc(C)c(CCC(=O)NC2CCCc3ccccc32)c(=O)[nH]1 (stereo not drawn) [CBK295600] | 98.7% | –
Cc1cc(NC(=O)Cn2cc(Br)cn2)no1 [CBK305706] | 102% | –
CCOc1ccc(NC(=O)NC(=O)C2CCN(C(C)=O)CC2)cc1 [CBK034852] | 119% | –
CC1=C[C@@H](CNC(=O)Nc2ccccc2)[C@H](C(C)C)C[C@H]1CC(=O)N1CCN(C)CC1 [CBK289048] | 121% | –

SMILES | viability at 28.5 h, 10 µM | viability at 28.5 h, 10 µM (bulk resorufin, single well)
CC(C)[C@@H](CO)n1c(=O)[nH]c2ncc(-c3cccc(/C=C/C(=O)O)c3)nc21 [CBK065043] | 88.6% | –
CC1(C)CC(=O)c2cnc3cc(-c4ccco4)nn3c2C1 [CBK283142] | 102% | –
CCCc1cc(CNC(=O)CN2CCCC(C)C2)on1 (stereo not drawn) [CBK282045] | 99.8% | –
NS(=O)(=O)c1ccc(N/C=C2\C(=O)NC(=O)N(Cc3ccccc3Cl)C2=O)cc1 [CBK265586] | – | 92.3%
C(=N\Nc1nnnn1-c1ccccc1)/c1ccco1 [CBK007334] | 109% | –
O=C(Nc1c(F)cc(F)cc1OC1CCNCC1)c1coc2c1C(=O)CCC2 [CBK050331T] | 93.9% | –
COc1cc(C=Cc2cc(C(=O)O)c3ccccc3n2)cc(Cl)c1OC(C)C [CBK296941] | 93.7% | –
C=CCN1C(=O)C2(CC(=O)N(Cc3ccccc3)C2=O)c2cc(OC)ccc21 (stereo not drawn) [CBK075281] | 103% | –
CCCSc1nnc(NC(=O)c2nc(SC)ncc2Cl)s1 [CBK268759] | 95.2% | –
O=C(O)C1CCN(c2ncnc3sc4c(c23)CCC4)CC1 [CBK268326] | 98.9% | –
CCC(CC)C(=O)N1CCC(c2nnc3n2CCCCC3)CC1 [CBK284614] | 86.6% | –
COC(=O)c1ccc(NC(=O)c2oc3ccc(Br)cc3c2C)cc1 [CBK296758] | 95.7% | –
Cc1cc(/C=C/C2=CCN(C)CC2)c(C)n1C1CC1 [CBK283858] | 85.9% | –
CN(C)CCCC(=O)N1CCN(c2ncccn2)CC1 [CBK144523] | 116% | –
NC(=O)c1cccc(-n2cc(-c3ccsc3)nn2)c1 [CBK113076] | 86.4% | –
COc1ccc(-c2cnc3[nH]c(=O)n(C4CC4)c3n2)cc1 [CBK064907] | 86.9% | –
CC12CCC(=O)N1CCCN2 (stereo not drawn) [CBK067102T] | 94.5% | –
Cc1cc2cc(CNc3cc(-c4ccccc4)ccc3O)c(=O)[nH]c2cc1C [CBK286164] | 82.7% | –
COc1cc(OC)c(S(=O)(=O)N2CCOCC2)cc1S(=O)(=O)N1CCOCC1 [CBK267564] | 98.1% | –
CCN(CC)CCOc1c(C)cc(Cl)cc1C [CBK262219] | 97% | –
CN(c1ccc(C(=O)Nc2ccc(S(=O)(=O)N3CCCC3)cc2)cc1)S(=O)(=O)c1ccccc1 [CBK266896] | 102% | –
Cn1cc(CN2C[C@H]3CN(C(=O)C4CCC4)C[C@@]3(C(=O)O)C2)cc1C#N [CBK307105] | 101% | –

SMILES | viability at 28.5 h, 10 µM | viability at 28.5 h, 10 µM (bulk resorufin, single well)
O=C(c1ccc(SCc2cccnc2)c([N+](=O)[O-])c1)N1CCCCC1 [CBK294452] | 98.8% | –
O=C(NCc1ccccc1)c1ccccc1NC(=O)C1CCCCC1C(=O)O (stereo not drawn) [CBK269283] | 92% | –
CCC1CN(C(C)=O)CCC1NCc1ccc(OCC(N)=O)cc1 (stereo not drawn) [CBK305168] | 102% | –
c1ccc(CCCNc2ncc(-c3ccc(N4CCOCC4)cc3)n3ccnc23)cc1 [CBK091223] | 112% | –
N#Cc1c(C(F)(F)F)cc(-c2ccc(Cl)cc2)nc1SCC(=O)O [CBK131885] | 97.5% | –
O=C1Nc2cc(Cl)ccc2C2=NCCCN12 [CBK284385] | 81.5% | –
CN(C)C(CNS(=O)(=O)c1ccc2[nH]c(=O)[nH]c(=O)c2c1)c1ccccc1Cl (stereo not drawn) [CBK286385] | 86.7% | –
O=C1NC(=S)NC(=O)C1=Cc1cn(-c2ccccc2)nc1-c1ccc(-c2ccc([N+](=O)[O-])cc2)o1 [CBK263149] | – | 107%
Cc1nnc2sc(-c3ccccc3NC(=S)NC(=O)c3cc4ccccc4o3)nn12 [CBK268845] | 103% | –
O=C(Nc1ccncc1)c1snnc1-c1ccccc1 [CBK287982] | 81.4% | –
CC(=O)c1cccc(NC(=O)Cn2nc(N3CCSCC3)ccc2=O)c1 [CBK307625] | 102% | –
CC(C)COc1ccc(-c2nonc2NC(=O)c2ccco2)cc1 [CBK299802] | 99.1% | –
Cc1ccc(Cc2cnc(NC(=O)C3CCCO3)s2)cc1Cl (stereo not drawn) [CBK305013] | 96% | –
CS(=O)(=O)N1CC2(CCN(Cc3cccc(C(F)(F)F)c3)CC2)c2ccccc21 [CBK126670] | 96.8% | –
O=C(NC1CCCC1)c1ccc(-n2ccnc2)c(-n2cccc2)c1 [CBK285368] | 94.1% | –
COCCNC(=O)c1cc(-c2cc(C)oc2C)nc2c1cnn2C(C)C [CBK305052] | 101% | –
COc1ccccc1-c1nnc2sc(-c3cnccn3)nn12 [CBK268428] | 100% | –
Cc1ccc(CNC(=O)c2cnoc2-c2ccc(Br)cc2)cc1F [CBK154896] | 93.8% | –
COc1ccccc1CNC(=O)c1ccc2nc(C)c(N(C)C(=O)c3cccs3)n2c1 [CBK146546] | 86.9% | –
O=c1[nH]c2ncc(-c3cccc4ncccc34)nc2n1CCCO [CBK065060] | 104% | –
COCCNc1nc(-c2cccs2)cn2ccnc12 [CBK066408] | 99.3% | –
